Data from the NIST ThermoML archive (doi:10.1021/acs.jced.8b00132).
Several values for one entry are separate records, joined by “and”; a condition that tells them apart may be missing. Equal values may be shown once.

O=C(C(F)(F)C(F)(F)F)C(F)(C(F)(F)F)C(F)(F)F [dodecafluoro-2-methylpentan-3-one]
Conditions	thermal conductivity
344.55 K, 132 kPa, Gas, hot wire	0.01525 W/m/K
344.55 K, 192 kPa, Gas, transient hot wire	0.01458 W/m/K
344.56 K, 170 kPa, Gas, transient hot wire	0.01468 W/m/K
344.56 K, 192 kPa, Gas, transient hot wire	0.01463 W/m/K
344.57 K, 170 kPa, Gas, transient hot wire	0.01503 W/m/K
344.6 K, 134 kPa, Gas, transient hot wire	0.01526 W/m/K and 0.01525 W/m/K
344.61 K, 83 kPa, Gas, hot wire	0.01485 W/m/K
344.62 K, 83 kPa, Gas, hot wire	0.0148 W/m/K
344.67 K, 26 kPa, Gas, hot wire	0.01453 W/m/K
344.68 K, 26 kPa, Gas, hot wire	0.01449 W/m/K
344.8 K, 192 kPa, Gas, transient hot wire	0.01479 W/m/K and 0.01481 W/m/K
344.83 K, 170 kPa, Gas, transient hot wire	0.01525 W/m/K and 0.01449 W/m/K
344.85 K, 134 kPa, Gas, transient hot wire	0.01542 W/m/K
344.87 K, 134 kPa, Gas, transient hot wire	0.01544 W/m/K
345.08 K, 191 kPa, Gas, transient hot wire	0.0149 W/m/K
345.08 K, 192 kPa, Gas, transient hot wire	0.01491 W/m/K
345.11 K, 169 kPa, Gas, transient hot wire	0.01531 W/m/K
345.11 K, 170 kPa, Gas, transient hot wire	0.01528 W/m/K
345.14 K, 134 kPa, Gas, transient hot wire	0.01546 W/m/K
345.15 K, 133 kPa, Gas, transient hot wire	0.01547 W/m/K
345.36 K, 191 kPa, Gas, transient hot wire	0.01503 W/m/K
345.37 K, 191 kPa, Gas, transient hot wire	0.01504 W/m/K
345.39 K, 169 kPa, Gas, transient hot wire	0.01534 W/m/K
345.4 K, 169 kPa, Gas, transient hot wire	0.01485 W/m/K
345.44 K, 133 kPa, Gas, transient hot wire	0.01551 W/m/K
345.45 K, 133 kPa, Gas, transient hot wire	0.0155 W/m/K
345.67 K, 191 kPa, Gas, transient hot wire	0.01515 W/m/K
345.68 K, 191 kPa, Gas, transient hot wire	0.01514 W/m/K
345.72 K, 169 kPa, Gas, transient hot wire	0.0154 W/m/K and 0.01511 W/m/K
345.77 K, 132 kPa, Gas, transient hot wire	0.01531 W/m/K
345.77 K, 133 kPa, Gas, transient hot wire	0.01548 W/m/K
358.25 K, 257 kPa, Gas, hot wire	0.01686 W/m/K
358.26 K, 257 kPa, Gas, hot wire	0.01685 W/m/K
358.3 K, 188 kPa, Gas, hot wire	0.01631 W/m/K
358.3 K, 189 kPa, Gas, hot wire	0.01648 W/m/K
358.33 K, 91 kPa, Gas, hot wire	0.01584 W/m/K
358.34 K, 91 kPa, Gas, hot wire	0.01584 W/m/K
358.37 K, 26 kPa, Gas, hot wire	0.01548 W/m/K and 0.01551 W/m/K
358.38 K, 256 kPa, Gas, hot wire	0.01692 W/m/K
358.38 K, 257 kPa, Gas, hot wire	0.01694 W/m/K
358.43 K, 187 kPa, Gas, hot wire	0.01629 W/m/K
358.43 K, 188 kPa, Gas, hot wire	0.01632 W/m/K
358.47 K, 91 kPa, Gas, hot wire	0.01587 W/m/K and 0.0159 W/m/K
358.5 K, 26 kPa, Gas, hot wire	0.01551 W/m/K
358.5 K, 256 kPa, Gas, hot wire	0.01713 W/m/K
358.51 K, 26 kPa, Gas, hot wire	0.0155 W/m/K
358.52 K, 256 kPa, Gas, hot wire	0.0169 W/m/K
358.57 K, 187 kPa, Gas, hot wire	0.01629 W/m/K and 0.01635 W/m/K
358.62 K, 91 kPa, Gas, hot wire	0.01584 W/m/K and 0.01592 W/m/K
358.62 K, 255 kPa, Gas, hot wire	0.01734 W/m/K
358.63 K, 256 kPa, Gas, hot wire	0.01729 W/m/K
358.65 K, 67979 kPa, Liquid, transient hot wire	0.07391 W/m/K
358.66 K, 26 kPa, Gas, hot wire	0.01548 W/m/K and 0.01547 W/m/K
358.66 K, 67960 kPa, Liquid, transient hot wire	0.07383 W/m/K
358.69 K, 56156 kPa, Liquid, transient hot wire	0.07064 W/m/K
358.69 K, 56160 kPa, Liquid, transient hot wire	0.07055 W/m/K
358.71 K, 187 kPa, Gas, hot wire	0.01648 W/m/K and 0.01644 W/m/K
358.77 K, 92 kPa, Gas, hot wire	0.01588 W/m/K and 0.01586 W/m/K
358.77 K, 255 kPa, Gas, hot wire	0.01736 W/m/K
358.77 K, 43866 kPa, Liquid, transient hot wire	0.06694 W/m/K
358.77 K, 43876 kPa, Liquid, transient hot wire	0.06686 W/m/K
358.78 K, 255 kPa, Gas, hot wire	0.01726 W/m/K
358.82 K, 26 kPa, Gas, hot wire	0.01555 W/m/K and 0.0155 W/m/K
358.82 K, 67912 kPa, Liquid, transient hot wire	0.07388 W/m/K
358.82 K, 67930 kPa, Liquid, transient hot wire	0.07402 W/m/K
358.83 K, 33615 kPa, Liquid, transient hot wire	0.06347 W/m/K
358.84 K, 257 kPa, Gas, transient hot wire	0.01632 W/m/K
358.84 K, 258 kPa, Gas, transient hot wire	0.01621 W/m/K
358.84 K, 33614 kPa, Liquid, transient hot wire	0.06347 W/m/K
358.85 K, 186 kPa, Gas, hot wire	0.0166 W/m/K and 0.01657 W/m/K
358.85 K, 56137 kPa, Liquid, transient hot wire	0.07063 W/m/K
358.88 K, 189 kPa, Gas, transient hot wire	0.01639 W/m/K
358.88 K, 56124 kPa, Liquid, transient hot wire	0.07064 W/m/K
358.9 K, 188 kPa, Gas, transient hot wire	0.01635 W/m/K
358.92 K, 24957 kPa, Liquid, transient hot wire	0.06017 W/m/K
358.92 K, 24958 kPa, Liquid, transient hot wire	0.06023 W/m/K
358.94 K, 92 kPa, Gas, hot wire	0.01588 W/m/K
358.95 K, 92 kPa, Gas, hot wire	0.01588 W/m/K
358.95 K, 43858 kPa, Liquid, transient hot wire	0.06694 W/m/K
358.95 K, 43862 kPa, Liquid, transient hot wire	0.06691 W/m/K
358.98 K, 26 kPa, Gas, hot wire	0.01553 W/m/K
358.99 K, 26 kPa, Gas, hot wire	0.0155 W/m/K
358.99 K, 67877 kPa, Liquid, transient hot wire	0.0739 W/m/K
358.99 K, 67897 kPa, Liquid, transient hot wire	0.07388 W/m/K
